Patent US9474757B2, “Methods for treating cancer using TOR kinase inhibitor combination therapy” (Signal Pharmaceuticals, LLC, priority 2013, dated 2016)
Entries after “also recorded” stand apart in the source; their conditions may differ.

Columns and labels:
[1] = tested on: HepG2 cells; test: Anchorage independent growth colony formation assay, HepG2; format: cell-based, Human; details: for colony formation, % of control: HepG2, single agent, 8 days
Procedure: (§1) Cell Lines/Cells. Human cell lines HepG2 and SK-Hep-1 cells were obtained from American Type Culture Collection (ATCC; Manassas, Va.). Cells were cultured in DMEM (Dulbecco's Modified Eagle's Medium) (Mediatech; Mannasas, Va.) with 10% Premium FBS (Lonza, Walkersville, Md.).
(1) Single Agent Colony Formation Assay. Nobel Agar (1.2 grams; BD; Franklin Lakes, N.J.) was placed in a 100-mL sterile bottle. Sterile water (100 mL) was added and microwaved until the agar boiled. Equal volumes of agar and 2×RPMI medium (ECE Scientific; Doylestown, Pa.) were mixed and 300 μL were transferred to each well in a 24-well flat bottom plate (BD; Franklin Lakes, N.J.). Plates were kept at 4° C. until the agar solidified. Cultures of HepG2 and SK-Hep-1 cells were harvested and resuspended in culture medium at 3.6×10^3 cells/mL. Equal volumes of agar, 2×RPMI, and cell suspension (1:1:1) were mixed in a sterile tube and 500 μL/well were immediately transferred into the 24-well plates. Plates were kept at 4° C. until the agar solidified. Culture medium (500 μL) containing compound or DMSO was added to each well (final DMSO concentration for each treatment was 0.2%). Compound 1 was tested at final concentrations of 0.1, 0.3, 1, 3, 10 and 30 μM. Cell treatments were set up in triplicate. Cells were incubated for 8-10 days at 37° C. in a 5% CO2 atmosphere. Photographs (2× magnification) of each well were taken using a Nikon DXM1200 Digital Camera and Nikon ACT1 software and saved as a TIFF file. ImageQuant TL (GE Healthcare; Piscataway, N.J.) Colony Count Software was used to count colonies. (2) Combination Study Colony Formation Assay. Nobel Agar (1.2 grams; BD; Franklin Lakes, N.J.) was placed in a 100-mL sterile bottle. Sterile water (100 mL) was added and microwaved until the agar boiled. Equal volumes of agar and 2×RPMI medium (ECE Scientific; Doylestown, Pa.) were mixed and 300 μL were transferred to each well in a 24-well flat bottom plate (BD; Franklin Lakes, N.J.). Plates were kept at 4° C. until the agar solidified. Cultures of HepG2 and SK-Hep-1 cells were harvested and resuspended in culture medium at 3.6×10^3 cells/mL. Equal volumes of agar, 2×RPMI, and cell suspension (1:1:1) were mixed in a sterile tube and 500 µL/well were immediately transferred into the 24-well plates. Plates were kept at 4° C. until the agar solidified. Culture medium (500 μL) containing compound or DMSO was added to each well (final DMSO concentration for each treatment was 0.2%). Cells were treated with single treatment as follows: Compound 1 was tested at final concentrations of 0.1 and 0.3 μM. Cell treatments were set up in triplicate. Cells were incubated for 8-10 days at 37° C. in a 5% CO2 atmosphere. Photographs (2× magnification) of each well were taken using a Nikon DXM1200 Digital Camera and Nikon ACT1 software and saved as a TIFF file. ImageQuant TL (GE Healthcare; Piscataway, N.J.) Colony Count Software was used to count colonies.
(§2) Significance versus the DMSO control was calculated using One Way ANOVA and Dunnett's Post test or unpaired t tests using GraphPad Prism v5.01.

[2] = tested on: SK-Hep-1 cells; test: Anchorage independent growth colony formation assay, SK-Hep-1; format: cell-based, Human
Procedure: as §1
(1) Single Agent Colony Formation Assay. Nobel Agar (1.2 grams; BD; Franklin Lakes, N.J.) was placed in a 100-mL sterile bottle. Sterile water (100 mL) was added and microwaved until the agar boiled. Equal volumes of agar and 2×RPMI medium (ECE Scientific; Doylestown, Pa.) were mixed and 300 μL were transferred to each well in a 24-well flat bottom plate (BD; Franklin Lakes, N.J.). Plates were kept at 4° C. until the agar solidified. Cultures of HepG2 and SK-Hep-1 cells were harvested and resuspended in culture medium at 3.6×10^3 cells/mL. Equal volumes of agar, 2×RPMI, and cell suspension (1:1:1) were mixed in a sterile tube and 500 μL/well were immediately transferred into the 24-well plates. Plates were kept at 4° C. until the agar solidified. Culture medium (500 μL) containing compound or DMSO was added to each well (final DMSO concentration for each treatment was 0.2%). Compound 1 was tested at final concentrations of 0.1, 0.3, 1, 3, 10 and 30 μM. Cell treatments were set up in triplicate. Cells were incubated for 8-10 days at 37° C. in a 5% CO2 atmosphere. Photographs (2× magnification) of each well were taken using a Nikon DXM1200 Digital Camera and Nikon ACT1 software and saved as a TIFF file. ImageQuant TL (GE Healthcare; Piscataway, N.J.) Colony Count Software was used to count colonies. (2) Combination Study Colony Formation Assay. Nobel Agar (1.2 grams; BD; Franklin Lakes, N.J.) was placed in a 100-mL sterile bottle. Sterile water (100 mL) was added and microwaved until the agar boiled. […]
as §2

[3] = tested on: WSU-DLCL2 xenograft; test: DLBCL xenograft model (WSU-DLCL2); format: in vivo, SCID mice; details: for decrease in tumor volume (TVR) vs vehicle: Day 34, Compound 1 10 mg/kg QD, Compound A 30 mg/kg QD, Compound AA 50 mg/kg BID, oral; for tumor volume reduction (TVR) vs vehicle: initial study, oral QD, end of 3-week dosing, Day 35
Procedure: Severe combined immunodeficiency (SCID) mice were implanted with human DLBCL cell line (WSU-DLCL2) into the flank. Treatment of compounds started between Day 11 and Day 14 after cell inoculation. Randomized groups of mice (n=9 to 10/group) were treated with the single agents (Compound 1, Compound A or Compound AA) or the combination of Compound 1/Compound A, Compound A/Compound AA, or Compound 1/Compound AA. Compounds were administered orally on a once daily (Compound 1 and Compound A) or twice daily […] schedule for 21 days. The positive control consisted of CHOP therapy (combination of cyclophosphamide, doxorubicin, vincristine and prednisone). Compound 1 and Compound A were formulated in CMC-Tween (carboxymethylcellulose/Tween 80/deionized water). Compound AA was suspended in DSP (dimethylsulphoxide/solutol/phosphate buffered saline).
Initial studies were conducted in order to determine the antitumor activity of Compound 1 and to identify a dose level for the combination studies. In the WSU-DLCL2 xenograft model, Compound 1 inhibited tumor growth in a dose-dependent fashion. […] In a subsequent combination study, Compound 1 was dosed at 10 mg/kg, once daily (QD). Compound A and Compound AA were dosed at 30 mg/kg (QD) and 50 mg/kg (BID), respectively.

[4] = tested on: OCI-Ly10 xenograft; test: OCI-Ly10 DLBCL xenograft model; format: in vivo, SCID mice
Text: OCI-Ly10 cells are derived from a diffuse-large B-cell lymphoma, a type of non-Hodgkins lymphoma. Female SCID mice (Fox Chase SCID®, CB 17/Icr-Prkdcscid, Charles River), characterized by severe combined T and B cell immunodeficiency, were 10 weeks old, with body weights ranging from 15.4 to 24.2 g, on Day 1 of this study. In brief, female CB.17 SCID mice were inoculated with 5×10^6 OCI-Ly10 cells subcutaneously, and tumors were allowed to grow to approximately 100-150 mm^3 before stratification into treatment groups, so as to yield groups with comparably sized tumors prior to treatment. In addition to the efficacy treatment groups, some mice were stratified into short-term treatment groups and their tumors were collected 4 hours post final dosing in groups that received saline, 30 mg/kg or 10 mg/kg Compound A, or 3 mg/kg Compound 1 once daily for seven days, starting on day 27. Frozen, and fixed paraffin-embedded, samples were analyzed. In the efficacy arm of the study, dosing began on Day 1 (D1) in 12 groups of mice (n=10/group) with established subcutaneous tumors (mean volumes, 120-129 mm^3). Compound A (at two dose levels) and Compound 1 (at one dose level) were each administered once daily for 28 days (qd×28). Control mice received the vehicle, 5% DMSO/15% Solutol® HS15/80% PBS, p.o. b.i.d.×28. On D29 a 21-day dosing extension, from day 33 to day 53, in the control and five test groups was implemented, resulting in b.i.d.×28/4/21 or qd×28/4/21 schedules for these groups.
Tumors were calipered twice weekly, and each mouse in the efficacy study was euthanized when its tumor reached the 1000 mm^3 volume endpoint, or on day 61, whichever came first. Efficacy was determined from tumor growth delay (TGD), defined as the increase in the median time-to-endpoint (TTE) in drug-treated (T) versus vehicle-treated (C) mice, and from the significance of survival extension.

[5] = tested on: doxorubicin-resistant Ramos cell xenografts; test: CIVO local injection, parental and doxorubicin-resistant RAMOS xenograft, cleaved caspase 3; format: in vivo, Nu/Nu mice; details: tumors harvested 24 hour post injection
Procedure: (§3) Anesthetized Nu/Nu mice harboring xenografted tumors were injected with multiple individual compounds or compound combinations, simultaneously, each into a distinct location of the tumor. Precise, controlled delivery of the compounds was evaluated for spatially defined and cellular changes around sites of tumor microinjection across xenograft models of DLBCL. Tumors were resected and injection quality was assessed by IVIS imaging of co-injected near-infrared tracking dye. Sections from representative regions down the z-axis of the tumor were prepared for staining with biomarkers of pathway inhibition and tumor response. Samples were then batch scanned in a Caliper Pannoramic slide scanner, resulting in high resolution images compatible with single cell analysis and subsequent data quantification via Presage's CIVO™ analyzer custom image analysis platform (for technology description, see R. Klinghoffer et al, AACR, 2014 and Presagebio.com).
Mice with parental or doxorubicin-resistant Ramos cell xenografts were injected locally with vehicle (4 μL), Compound 2 (13 μg in 4 μL injected), Compound 1 (39 μg in 4 μL injected), or Vincristine (1.47 μg in 4 μL (400 μM) injected). Tumors were harvested 24 hour post injection.

[6] = tested on: SUDHL4 (DLBCL) xenografts; test: CIVO arrayed microinjection, SUDHL4 xenograft, cleaved caspase 3; format: in vivo, Nu/Nu mice; details: systemic Compound A 30 mpk QD×8 -/+ dexamethasone 5 mpk, local Compound 2 13 μg in 4 μL
Procedure: as §3
In order to evaluate combination effects of Compound A with other compounds in the DLBCL model SUDHL4, vehicle or Compound A (30 mpk QD×8)−/+ dexamethasone (5 mpk QD×8) was given systemically. […] Apoptosis was evaluated by measurement of the apoptosis marker, cleaved caspase 3 (CC3), which was plotted as a function of distance from the injection site.

[7] = tested on: OCILy10 xenografts; test: CIVO arrayed microinjection, OCILy10 xenograft, cleaved caspase 3; format: in vivo, Nu/Nu mice
Procedure: as §3
In order to evaluate combination treatment with Compound 1, Compound A and Compound AA, mice with OCILy10 xenografts were treated systemically with Compound A 30 mpk QD×4 followed by Compound A 30 mpk and Compound 110 mpk QD×3. At 3 hours after the 7th systemic dose, Compound AA (15.4 μg in 4 μL injected) was injected locally at three sites. […]

[8] = combination study, single agents or in combination
[9] = extended schedule qd×28/4/21: Compound A 10 mg/kg, Compound 1 3 mg/kg
[10] = extended schedule qd×28/4/21: Compound A 10 mg/kg, Compound 1 3 mg/kg, alone or combined
[11] = 28-day schedule: Compound A 30 mg/kg qd×28, alone or with Compound 1

CO[C@H]1CC[C@H](N2C(=O)CNc3ncc(-c4ccc(C(C)(C)O)nc4)nc32)CC1 [Compound 1, 7-(6-(2-hydroxypropan-2-yl)pyridin-3-yl)-1-((1r,4r)-4-methoxycyclohexyl)-3,4-dihydropyrazino-[2,3-b]pyrazin-2(1H)-one]
anti-colony forming activity ([1]; HepG2, concentrations of 0.1 to 100 μM): dose-dependent and significant anti-colony forming activity
colony formation, % of control ([1]; 0.1 μM): 74 % of control
colony formation, % of control ([1]; 0.3 μM): 57 % of control
colony formation, % of control ([1]; 1 μM): 33 % of control
colony formation, % of control ([1]; 3 μM): 24 % of control
colony formation, % of control ([1]; 10 μM): 16 % of control
colony formation, % of control ([1]; 30 μM): 11 % of control
anti-colony forming activity ([2]; SK-Hep-1, concentrations of 0.1 to 100 μM): dose-dependent and significant anti-colony forming activity
inhibition of colony formation ([2]; SK-Hep-1, single agent, 3 μM and higher): 100%
colony formation, % of control ([2]; SK-Hep-1, single agent, 0.3-30 μM, 8-10 days): 0-45 % of control
decrease in tumor volume (TVR) vs vehicle ([3]; combination study): 29%
body weight loss [3, 8]: No significant body weight loss
tumor volume reduction (TVR) vs vehicle ([3]; 1 mg/kg): ~22%
tumor volume reduction (TVR) vs vehicle ([3]; 3 mg/kg): ~28%
body weight loss ([3]; initial study, 1, 3 and 10 mg/kg): No significant body weight loss
tumor growth delay (TGD), % [4, 9]: 73%
PRs / regressions [4, 10]: one
survivors (n=10/group) [4, 10]: five
tumor growth delay (TGD) [4, 10]: 23.8 days

CCN1C(=O)CNc2ncc(-c3ccc(-c4nc[nH]n4)nc3C)nc21 [Compound 2, 1-ethyl-7-(2-methyl-6-(1H-1,2,4-triazol-3-yl)pyridin-3-yl)-3,4-dihydropyrazino[2,3-b]pyrazin-2(1H)-one]
sensitivity of doxorubicin resistant vs parental Ramos cells (cleaved caspase 3 vs distance from injection site) [5]: increased sensitivity; also recorded: more sensitive

Cc1nc2cccc(N)c2c(=O)n1C1CCC(=O)NC1=O (centres unmarked) [Compound A, 3-(5-Amino-2-methyl-4-oxoquinazolin-3(4H)-yl)-piperidine-2,6-dione]
decrease in tumor volume (TVR) vs vehicle ([3]; combination study): 30%
body weight loss [3, 8]: No significant body weight loss
tumor growth delay (TGD), % ([4]; 28-day schedule: Compound A 30 mg/kg qd×28): 88%
PRs [4, 11]: two
survivors (n=10/group) [4, 11]: seven
tumor growth delay (TGD) [4, 11]: 28.6 days
tumor growth delay (TGD), % [4, 9]: 27%
PRs / regressions [4, 10]: no regressions
survivors (n=10/group) [4, 10]: three
tumor growth delay (TGD) [4, 10]: 8.9 days
apoptosis (cleaved caspase 3) induced by local treatment with Compound 2 [6]: enhanced induction of apoptosis
apoptosis (cleaved caspase 3) induced by local treatment with Compound 2 ([6]; listed as compound A): enhanced cell death
cell death (CC3 positive sites) at Compound AA injection sites ([7]; systemic Compound A 30 mpk, with or without Compound 1 10 mpk, local Compound AA): did not lead to cell death
CC3 positive sites ([7]; systemic dose, local injection of Compound AA 15.4 μg in 4 μL, total sites 18 and 26): 0

CC[C@]1(O)C[C@H]2CN(CCc3c([nH]c4ccccc34)[C@@](C(=O)OC)(c3cc4c(cc3OC)N(C=O)[C@H]3[C@@](O)(C(=O)OC)[C@H](OC(C)=O)[C@]5(CC)C=CCN6CC[C@]43[C@@H]65)C2)C1 [Vincristine, reference compound]
sensitivity of doxorubicin resistant vs parental Ramos cells (cleaved caspase 3 vs distance from injection site) [5]: resistant
